One series has as its system alpha1-adrenoceptor. As to the kind of experiment: hypotension liability (alpha1-adrenoceptor antagonism).
Another series has as its system neuropathic pain. Nature of the series: model of neuropathic pain (Bennett model). Format: in vivo. The source says:
Evidence of the incorrect conclusion reached by Chenard et al., 1991, supra, is provided by experiments conducted in a Bennett model (Bennett et al, 1988, Pain 33(1):87-107). The results are shown in the accompanying drawing.

Series [1] deals with thermal stimulation of the lesioned paw. Nature of the series: effect of agents on thermal stimulation of the lesioned paw. It is filed as in vivo.
The target in series [2] is NR2B-containing NMDA receptors (Homo sapiens, UniProt Q05586+Q13224). Conditions: voltage-independent and non-competitive manner; cited from earlier work.
Sequence of NR2B-containing NMDA receptors (Q13224 27-1484, other chains not shown): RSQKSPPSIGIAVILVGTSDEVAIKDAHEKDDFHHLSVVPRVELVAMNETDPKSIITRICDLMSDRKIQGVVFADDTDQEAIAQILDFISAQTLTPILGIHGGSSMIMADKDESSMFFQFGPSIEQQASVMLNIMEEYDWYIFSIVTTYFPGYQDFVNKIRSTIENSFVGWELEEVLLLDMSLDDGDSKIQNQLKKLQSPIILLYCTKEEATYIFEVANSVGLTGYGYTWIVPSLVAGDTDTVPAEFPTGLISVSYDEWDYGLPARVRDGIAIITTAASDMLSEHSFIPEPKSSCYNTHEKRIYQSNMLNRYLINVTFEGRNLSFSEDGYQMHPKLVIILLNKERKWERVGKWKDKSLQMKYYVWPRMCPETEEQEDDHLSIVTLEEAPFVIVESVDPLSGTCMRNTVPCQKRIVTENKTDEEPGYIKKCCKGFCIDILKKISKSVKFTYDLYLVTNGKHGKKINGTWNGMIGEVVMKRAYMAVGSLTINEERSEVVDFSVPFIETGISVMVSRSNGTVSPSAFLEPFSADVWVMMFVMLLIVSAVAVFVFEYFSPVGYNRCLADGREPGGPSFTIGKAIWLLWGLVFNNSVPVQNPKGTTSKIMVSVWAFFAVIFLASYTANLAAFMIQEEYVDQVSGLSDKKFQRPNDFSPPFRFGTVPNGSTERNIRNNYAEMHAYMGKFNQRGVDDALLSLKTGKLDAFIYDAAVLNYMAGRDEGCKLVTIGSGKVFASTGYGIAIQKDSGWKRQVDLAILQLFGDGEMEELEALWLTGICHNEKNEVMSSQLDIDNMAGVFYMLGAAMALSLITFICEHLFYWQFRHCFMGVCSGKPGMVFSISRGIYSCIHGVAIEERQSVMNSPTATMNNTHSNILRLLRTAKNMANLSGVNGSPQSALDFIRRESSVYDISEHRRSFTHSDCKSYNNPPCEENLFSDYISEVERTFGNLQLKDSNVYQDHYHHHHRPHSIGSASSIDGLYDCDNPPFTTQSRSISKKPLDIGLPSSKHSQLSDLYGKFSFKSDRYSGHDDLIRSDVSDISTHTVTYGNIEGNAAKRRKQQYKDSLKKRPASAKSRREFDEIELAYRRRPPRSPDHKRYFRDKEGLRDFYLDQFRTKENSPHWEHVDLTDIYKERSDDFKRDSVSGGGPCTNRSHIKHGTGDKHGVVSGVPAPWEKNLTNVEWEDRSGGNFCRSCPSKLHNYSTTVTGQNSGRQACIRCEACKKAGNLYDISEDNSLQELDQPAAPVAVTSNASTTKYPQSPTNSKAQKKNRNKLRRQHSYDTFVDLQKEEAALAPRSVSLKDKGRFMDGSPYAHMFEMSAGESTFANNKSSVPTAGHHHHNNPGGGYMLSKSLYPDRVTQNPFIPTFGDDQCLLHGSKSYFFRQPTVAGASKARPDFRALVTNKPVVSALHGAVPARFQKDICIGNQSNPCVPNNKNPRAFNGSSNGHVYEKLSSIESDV
In series [3] the test system is alpha-1 adrenergic receptor. To be noted: cited from earlier work.
The subject of another series is acute and chronic pain. To be noted: in vivo; cited from earlier work.

Entries after “also recorded” stand apart in the source; their conditions may differ.

On to `CC(C(O)c1ccc(O)cc1)N1CCC(Cc2ccccc2)CC1` (single isomer, unassigned; (-)) [(−)-threo-ifenprodil], for which the “hypotension liability (alpha1-adrenoceptor antagonism) versus the other enantiomers” value with alpha1-adrenoceptor is recorded as “lower hypotension liability”. Besides, the “efficacy versus the other enantiomers in a model of neuropathic pain” value with neuropathic pain is on record as “does not produce a significant increase in efficacy over the other enantiomers”. Besides, the “effectiveness on thermal stimulation of the lesioned paw, comparison of enantiomers” value in series [1] (3 mg/kg ip) is given as “the most effective enantiomer”.
`CC(C(O)c1ccc(O)cc1)N1CCC(Cc2ccccc2)CC1` (stereo not shown) [Ifenprodil, 2-(4-benzylpiperidino)-1-(4-hydroxyphenyl)-1-propanol]: the “block of NR2B-containing NMDA receptors” value in series [2] is “selectively blocks NR2B-containing NMDA receptors”. Also, in series [3], the “alpha-1 adrenergic receptor binding” value is reported as “potent alpha-1 adrenergic receptor binding properties”. Moreover, the “anti-nociceptive activity in animal models of acute and chronic pain” value in the series with acute and chronic pain is “exhibits anti-nociceptive activity”. For the same compound, in series [1] (ifenprodil 3, 10 and 30 mg/kg ip, gabapentin 30 mg/kg ip, morphine 8 mg/kg ip), the “effectiveness on thermal stimulation of the lesioned paw relative to comparators” value is “more effective than gabapentin; also recorded: almost as effective as morphine”.

The values are drawn from patent US20050222205A1, “Treatment of pain with ifendropil” (priority 2002, published 2005).
